# According to PMC2957182 (Molecular and cellular endocrinology, 2010):
# Legend:
# [1] = tested on: ovaries; conditions: bovine insulin; ref Riehle and Brown, 1999; cited from earlier work
# [2] = tested on: Akt; conditions: HNMPA-(AM3) 500 μM, ILP3 10 pmol or ILP4 20 pmol, 2 h, immunoblot
Compound,Ecdysteroid production by ovaries [1],Akt phosphorylation in ovaries with ILPs plus HNMPA-(AM3) [2]
bovine insulin: bovine insulin,stimulates ecdysteroid production,–
CC(=O)OCOC(c1ccc2ccccc2c1)P(=O)(OCOC(C)=O)OCOC(C)=O (centres unmarked) [HNMPA-(AM3)],–,no change in phosphorylation
